Like-named read-outs stand apart in the source and are kept apart here. Each block holds one compound with its values, some of them ahead of it.
Experiments:
Type in all cases: cell-based
M1 muscarinic receptor = target: T1, M1 muscarinic receptor (Homo sapiens, UniProt P11229); assay: Functional mobilization of intracellular calcium (FLIPR) in CHO cells expressing M1; settings: for M1 Activity: CHO cells expressing M1, FLIPR calcium assay; for Emax: CHO; for EC50: CHO cells expressing M1, FLIPR calcium
T1 construct: expressed in transfected cells; host or cells: CHO (M1-CHO)
T1 sequence (P11229 1-460): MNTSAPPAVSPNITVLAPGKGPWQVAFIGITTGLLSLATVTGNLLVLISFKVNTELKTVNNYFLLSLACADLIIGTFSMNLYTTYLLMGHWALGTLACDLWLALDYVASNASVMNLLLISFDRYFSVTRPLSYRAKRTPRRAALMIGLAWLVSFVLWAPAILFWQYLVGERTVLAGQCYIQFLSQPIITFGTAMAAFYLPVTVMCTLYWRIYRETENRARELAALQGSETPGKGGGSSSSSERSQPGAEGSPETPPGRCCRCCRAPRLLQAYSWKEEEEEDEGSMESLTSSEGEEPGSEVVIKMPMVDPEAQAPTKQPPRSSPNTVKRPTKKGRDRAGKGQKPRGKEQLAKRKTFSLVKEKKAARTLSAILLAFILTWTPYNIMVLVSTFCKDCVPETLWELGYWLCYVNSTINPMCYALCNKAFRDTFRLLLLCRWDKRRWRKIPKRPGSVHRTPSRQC
Outline: (§1)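 Calcium flux is read on FLIPR over 60 sec at 488/540 nm in muscarinic-receptor CHO lines. Antagonist mode adds carbachol at EC80 after 15 min compound preincubation or with simultaneous co-application. Agonist mode adds compound alone. Cells carry Fluo-3 or Calcium 3 dye in probenecid-containing pH 7.4 buffer, 0.5% DMSO final.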

M2 muscarinic receptor = target: T2, M2 muscarinic receptor (Homo sapiens, UniProt P08172); assay: Functional mobilization of intracellular calcium (FLIPR) in CHO cells expressing M2; settings: for M2 Activity: CHO cells expressing M2, FLIPR calcium assay; for Emax: CHO; for EC50: CHO cells expressing M2, FLIPR calcium
T2 construct: expressed in transfected cells; host or cells: CHO (M2-CHO)
T2 sequence (P08172 1-466): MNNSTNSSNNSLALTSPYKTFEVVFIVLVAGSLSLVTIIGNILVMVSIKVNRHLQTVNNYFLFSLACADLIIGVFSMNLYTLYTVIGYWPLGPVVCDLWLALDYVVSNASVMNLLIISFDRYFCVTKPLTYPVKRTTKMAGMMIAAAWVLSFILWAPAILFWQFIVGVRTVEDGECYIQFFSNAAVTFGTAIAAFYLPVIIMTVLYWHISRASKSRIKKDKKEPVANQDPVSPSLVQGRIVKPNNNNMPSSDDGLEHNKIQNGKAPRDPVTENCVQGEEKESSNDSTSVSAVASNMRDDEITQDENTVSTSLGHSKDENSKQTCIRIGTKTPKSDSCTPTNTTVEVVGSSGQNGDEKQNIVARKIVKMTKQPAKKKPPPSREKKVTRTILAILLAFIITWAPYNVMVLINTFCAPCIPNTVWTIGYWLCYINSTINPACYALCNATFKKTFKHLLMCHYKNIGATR
Outline: as §1

M3 muscarinic receptor = target: T3, M3 muscarinic receptor (Homo sapiens, UniProt P20309); assay: Functional mobilization of intracellular calcium (FLIPR) in CHO cells expressing M3; settings: for M3 Activity: CHO cells expressing M3, FLIPR calcium assay; for Emax: CHO; for EC50: CHO cells expressing M3, FLIPR calcium
T3 construct: expressed in transfected cells; host or cells: CHO (M3-CHO)
T3 sequence (P20309 whole entry): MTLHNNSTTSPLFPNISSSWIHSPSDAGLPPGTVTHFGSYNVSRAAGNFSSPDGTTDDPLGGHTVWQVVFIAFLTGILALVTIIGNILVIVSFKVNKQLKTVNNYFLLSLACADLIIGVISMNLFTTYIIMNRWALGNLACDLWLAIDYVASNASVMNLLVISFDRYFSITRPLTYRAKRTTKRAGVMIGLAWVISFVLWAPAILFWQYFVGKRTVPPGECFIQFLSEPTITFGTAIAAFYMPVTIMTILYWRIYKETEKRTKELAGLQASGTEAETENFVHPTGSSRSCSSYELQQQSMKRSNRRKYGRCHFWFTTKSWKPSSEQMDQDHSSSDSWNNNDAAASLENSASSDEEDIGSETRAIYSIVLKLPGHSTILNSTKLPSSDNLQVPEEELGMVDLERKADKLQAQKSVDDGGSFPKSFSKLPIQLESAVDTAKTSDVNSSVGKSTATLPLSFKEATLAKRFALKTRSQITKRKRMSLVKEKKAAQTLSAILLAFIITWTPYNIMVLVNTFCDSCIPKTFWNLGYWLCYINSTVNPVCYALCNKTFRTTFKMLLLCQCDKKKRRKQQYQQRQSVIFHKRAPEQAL
Outline: as §1

M4 muscarinic receptor = target: T4, M4 muscarinic receptor (Homo sapiens, UniProt P08173); assay: Functional mobilization of intracellular calcium (FLIPR) in CHO cells expressing M4; settings: for M4 Activity: CHO cells expressing M4, FLIPR calcium assay; for Emax: CHO; for EC50: CHO cells expressing M4, FLIPR calcium
T4 construct: expressed in transfected cells; host or cells: CHO (M4-CHO)
T4 sequence (P08173 1-479): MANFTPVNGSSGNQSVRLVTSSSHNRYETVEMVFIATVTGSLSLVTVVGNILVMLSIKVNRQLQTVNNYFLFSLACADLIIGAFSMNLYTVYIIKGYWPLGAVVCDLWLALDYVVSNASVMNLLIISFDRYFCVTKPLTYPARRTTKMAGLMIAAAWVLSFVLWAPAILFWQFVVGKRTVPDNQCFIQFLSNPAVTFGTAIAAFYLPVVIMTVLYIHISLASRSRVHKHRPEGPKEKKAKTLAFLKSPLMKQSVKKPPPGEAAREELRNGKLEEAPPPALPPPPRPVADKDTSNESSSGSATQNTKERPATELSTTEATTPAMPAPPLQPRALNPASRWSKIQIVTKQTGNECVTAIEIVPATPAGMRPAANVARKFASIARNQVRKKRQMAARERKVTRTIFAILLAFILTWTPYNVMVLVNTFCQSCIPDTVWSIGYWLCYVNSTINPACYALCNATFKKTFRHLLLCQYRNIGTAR
Outline: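 Recombinant CHO cells loaded with Fluo-3 AM or Calcium 3 dye in pH 7.4 buffer containing 1 mM probenecid, with 0.5% final DMSO. For agonism, compound is added directly. For inhibition, it is preincubated 15 min, or co-applied, before carbachol at EC80. FLIPR fluorescence (ex 488, em 540 nm) is recorded for 60 s.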

[1] = 100% efficacy = maximum response obtained with the Carbachol control
[2] = 100% = maximum response obtained with the Carbachol control, read-out: M1 Efficacy
[3] = 100% = maximum response obtained with the Carbachol control, read-out: M2 Efficacy
[4] = 100% = maximum response obtained with the Carbachol control, read-out: M3 Efficacy
[5] = 100% = maximum response obtained with the Carbachol control, read-out: M4 Efficacy

SMILES: CN(C)C(=O)N[C@H]1CC2(CCN(CCC(C)(C)C)CC2)c2ccccc21 [compound 297]
M1 Activity (M1 muscarinic receptor): + (activity was measured to be greater than 5.0 μM)
Emax (M1 muscarinic receptor; [1]): < 25%
M2 Activity (M2 muscarinic receptor): + (activity was measured to be greater than 5.0 μM)
Emax (M2 muscarinic receptor; [1]): < 25%
M3 Activity (M3 muscarinic receptor): + (activity was measured to be greater than 5.0 μM)
Emax (M3 muscarinic receptor; [1]): < 25%
M4 Activity (M4 muscarinic receptor): + (activity was measured to be greater than 5.0 μM)
Emax (M4 muscarinic receptor; [1]): < 25%

SMILES: CSC(C)CCN1CCC2(CC[C@H](NC(C)=O)c3ccccc32)CC1 (some centres unmarked) [compound 49]
EC50 (M1 muscarinic receptor): 2 to 5 µM
Emax (M1 muscarinic receptor; [2]): 25 to 100%
EC50 (M2 muscarinic receptor): > 5 µM
Emax (M2 muscarinic receptor; [3]): < 25%
EC50 (M3 muscarinic receptor): > 5 µM
Emax (M3 muscarinic receptor; [4]): < 25%
EC50 (M4 muscarinic receptor): < 2 µM
Emax (M4 muscarinic receptor; [5]): 25 to 100%

SMILES: CC(=O)N[C@H](C)C(=O)N[C@@H]1CCC2(CCN(CCC(C)(C)C)CC2)c2ccccc21 [compound 162]
EC50 (M1 muscarinic receptor): > 5 µM
Emax (M1 muscarinic receptor; [2]): 25 to 100%
EC50 (M2 muscarinic receptor): > 5 µM
Emax (M2 muscarinic receptor; [3]): < 25%
EC50 (M3 muscarinic receptor): > 5 µM
Emax (M3 muscarinic receptor; [4]): < 25%
EC50 (M4 muscarinic receptor): < 2 µM
Emax (M4 muscarinic receptor; [5]): 25 to 100%

SMILES: CCN(CC)C(=O)CN1CCC2(CC1)C[C@H](NC(C)=O)c1ccccc12 [compound 226]
M1 Activity (M1 muscarinic receptor): + (activity was measured to be greater than 5.0 μM)
Emax (M1 muscarinic receptor; [1]): < 25%
M2 Activity (M2 muscarinic receptor): + (activity was measured to be greater than 5.0 μM)
Emax (M2 muscarinic receptor; [1]): < 25%
M3 Activity (M3 muscarinic receptor): + (activity was measured to be greater than 5.0 μM)
Emax (M3 muscarinic receptor; [1]): < 25%
M4 Activity (M4 muscarinic receptor): + (activity was measured to be greater than 5.0 μM)
Emax (M4 muscarinic receptor; [1]): < 25%

SMILES: CC(C)(C)CCN1CCC2(CC[C@@H](NC(=O)C3CCCO3)c3ccccc32)CC1 (some centres unmarked) [compound 220]
M1 Activity (M1 muscarinic receptor): + (activity was measured to be greater than 5.0 μM)
Emax (M1 muscarinic receptor; [1]): < 25%
M2 Activity (M2 muscarinic receptor): + (activity was measured to be greater than 5.0 μM)
Emax (M2 muscarinic receptor; [1]): < 25%
M3 Activity (M3 muscarinic receptor): + (activity was measured to be greater than 5.0 μM)
Emax (M3 muscarinic receptor; [1]): < 25%
M4 Activity (M4 muscarinic receptor): +++ (activity was measured to be less than 2.0 μM)
Emax (M4 muscarinic receptor; [1]): 25 to 100%

SMILES: CCC(=O)N(C)[C@H]1CCC2(CCN(CCC(C)(C)C)CC2)c2ccccc21 [compound 164]
EC50 (M1 muscarinic receptor): < 2 µM
Emax (M1 muscarinic receptor; [2]): 25 to 100%
EC50 (M2 muscarinic receptor): > 5 µM
Emax (M2 muscarinic receptor; [3]): < 25%
EC50 (M3 muscarinic receptor): > 5 µM
Emax (M3 muscarinic receptor; [4]): < 25%
EC50 (M4 muscarinic receptor): < 2 µM
Emax (M4 muscarinic receptor; [5]): 25 to 100%

SMILES: CC(=O)N(C)[C@H]1CCC2(CCN(CCC(C)(C)C)CC2)c2ccccc21 [compound 123]
EC50 (M1 muscarinic receptor): < 2 µM
Emax (M1 muscarinic receptor; [2]): 25 to 100%
EC50 (M2 muscarinic receptor): > 5 µM
Emax (M2 muscarinic receptor; [3]): < 25%
EC50 (M3 muscarinic receptor): > 5 µM
Emax (M3 muscarinic receptor; [4]): < 25%
EC50 (M4 muscarinic receptor): < 2 µM
Emax (M4 muscarinic receptor; [5]): 25 to 100%

SMILES: CC(C)CCN1CCC2(CC1)C[C@H](NC(=O)N(C)C)c1ccccc12 [compound 293]
M1 Activity (M1 muscarinic receptor): + (activity was measured to be greater than 5.0 μM)
Emax (M1 muscarinic receptor; [1]): < 25%
M2 Activity (M2 muscarinic receptor): + (activity was measured to be greater than 5.0 μM)
Emax (M2 muscarinic receptor; [1]): < 25%
M3 Activity (M3 muscarinic receptor): + (activity was measured to be greater than 5.0 μM)
Emax (M3 muscarinic receptor; [1]): < 25%
M4 Activity (M4 muscarinic receptor): + (activity was measured to be greater than 5.0 μM)
Emax (M4 muscarinic receptor; [1]): < 25%

Emax (M1 muscarinic receptor; [1]): < 25%
Emax (M2 muscarinic receptor; [1]): < 25%
Emax (M3 muscarinic receptor; [1]): < 25%
Emax (M4 muscarinic receptor; [1]): < 25%
SMILES: CC(C)(C)OC(=O)N1CCC2(CC1)C[C@H](NC(=O)C1CC1)c1ccccc12 [compound 279]
M1 Activity (M1 muscarinic receptor): + (activity was measured to be greater than 5.0 μM)
M2 Activity (M2 muscarinic receptor): + (activity was measured to be greater than 5.0 μM)
M3 Activity (M3 muscarinic receptor): + (activity was measured to be greater than 5.0 μM)
M4 Activity (M4 muscarinic receptor): + (activity was measured to be greater than 5.0 μM)

SMILES: CCCN1CCC2(CC[C@H](NC(C)=O)c3ccccc32)CC1 [compound 95]
EC50 (M1 muscarinic receptor): > 5 µM
Emax (M1 muscarinic receptor; [2]): 25 to 100%
EC50 (M2 muscarinic receptor): > 5 µM
Emax (M2 muscarinic receptor; [3]): < 25%
EC50 (M3 muscarinic receptor): > 5 µM
Emax (M3 muscarinic receptor; [4]): < 25%
EC50 (M4 muscarinic receptor): > 5 µM
Emax (M4 muscarinic receptor; [5]): 25 to 100%

From patent US8003660B2, “Modulators of muscarinic receptors” (Vertex Pharmaceuticals Incorporated, priority 2006, dated 2011)
